Data on two molecules can be found in article PMC11247081 (Signal Transduction and Targeted Therapy, 2024).

For data set [1] the following is noted: pre-clinical studies; cited from earlier work.
The conditions of data set [2]: pre-clinical studies; cited from earlier work. The source holds these as a separate data set.
A short description of data set [3]: Pharmacokinetics of SHR-A1811, total antibody and free payload (non-compartmental). Particulars: for Tmax: median (range).
The subject of data set [4] is HER2-mutant NSCLC. As to conditions: pretreated patients with HER2-mutant NSCLC; cited from earlier work.
Where [5] appears, read: multiple dosing (cycle 3), SHR-A1811 […] (n=3), PK data available for 1 patient.
[6] abbreviates: single dosing (cycle 1), SHR-A1811 8.0 mg/kg (n=3), mean (SD).

Take `CC[C@@]1(O)C(=O)OCc2c1cc1n(c2=O)Cc2c-1nc1cc(F)c(C)c3c1c2[C@@H](NC(=O)[C@H](O)C1CC1)CC3` [Free payload]: the “cytotoxicity compared with the payload of T-DXd” value in data set [1] is given as “superior”. In data set [2], the “membrane permeability compared with the payload of T-DXd” value was “superior”. Also, in data set [3] (after single dosing, over the tested dose range), the “exposure (Cmax, AUC0−21d, AUC0−t, and AUC0−∞) versus dose” value is “increased in a dose-dependent manner”. The “plasma exposure compared with ADC and TAb” value in data set [3] (all studied dose levels) is listed as “much lower”. In addition, the t1/2 in data set [3] (setting [5]) is listed as 5.6 (NC) day; in data set [3] (multiple dosing (cycle 3), SHR-A1811 […] (n=3), mean (SD)), 5.7 (0.5) day; in data set [3] (multiple dosing (cycle 3), SHR-A1811 […] (n=10), mean (SD)), 6.5 (1.6) day; in data set [3] (multiple dosing (cycle 3), SHR-A1811 […] (n=41), mean (SD)) it was 6.3 (1.0) day; in data set [3] (setting [6]) it was 5.5 (1.1) day; in data set [3] (single dosing (cycle 1), SHR-A1811 […] (n=10), mean (SD)) it was 5.9 (1.1) day. In data set [3] (single dosing (cycle 1), SHR-A1811 […] (n=41), mean (SD)), the t1/2 was 5.2 (0.6) day. Besides, the Tmax in data set [3] (setting [5]) is reported as 0.105 (0.1050-0.1050) day; in data set [3] (multiple dosing (cycle 3), SHR-A1811 […] (n=3)), 0.124 (0.1150-0.1320) day; in data set [3] (multiple dosing (cycle 3), SHR-A1811 […] (n=10)), 0.117 (0.1050-0.1190) day; in data set [3] (multiple dosing (cycle 3), SHR-A1811 […] (n=41)), 0.104 (0.0806-7.0200) day; in data set [3] (single dosing (cycle 1), SHR-A1811 8.0 mg/kg (n=3)) it was 1.0600 (0.3960-1.0600) day; in data set [3] (single dosing (cycle 1), SHR-A1811 […] (n=10)), 0.3990 (0.1470-1.0200) day. In addition, in data set [3] (single dosing (cycle 1), SHR-A1811 […] (n=41)), the Tmax was 0.3960 (0.0236-1.0600) day. Besides, in data set [3] (setting [6]), the AUC0-21d is reported as 23.5 (7.4) day·ng/mL. In addition, in data set [3] (setting [6]), the AUC0-t is given as 22.8 (6.2) day·ng/mL. Also, in data set [3] (setting [6]), the “AUC0-∞” value is on record as 25.2 (7.6) day·ng/mL. In data set [3] (setting [6]), the Cmax is on record as 3.9 (1.0) ng/mL. Further, the MRT in data set [3] (setting [6]) is 7.6 (1.8) day.

Regarding Trastuzumab emtansine [T-DM1], in data set [4], the ORR was 44% and the “median DoR” value is recorded as 4 months.
